Reference: ChEMBL document CHEMBL1155575, “Kirkinine, a new daphnane orthoester with potent neurotrophic activity from Synaptolepis kirkii” (2000)

How the values were obtained:
Format in all cases: functional, Gallus gallus
[1] = Neurotrophic activity against chick embryo dorsal root ganglion assessed as neuronal viability at 70 nM after 2 days by Calcein-AM assay
[2] = Neurotrophic activity against chick embryo dorsal root ganglion assessed as neuronal viability at 7000 nM after 2 days by Calcein-AM assay
[3] = Neurotrophic activity against chick embryo dorsal root ganglion assessed as neuronal viability at 700 nM after 2 days by Calcein-AM assay

Work on C=C(C)[C@@]12O[C@@]3(/C=C/CCCCCCCCCCCCC)O[C@@H]1[C@@H]1[C@@H]4O[C@]4(CO)[C@@H](O)[C@]4(O)C(=O)C(C)=C[C@H]4[C@@]1(O3)[C@H](C)[C@H]2OC(C)=O [KIRKININE] yielded an Activity [1] of 57%, an Activity [2] of 142% and an Activity [3] of 103%.
